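Growth conditions: 96-well plates. Treatment: test compound, 48 hours, 5 concentrations. Analysis: linear interpolation between bracketing concentrations; unreached endpoints set to highest concentration. Definition used: TGI = concentration required for complete inhibition of growth.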
Experiments:
Assay in all cases: NCI anticancer screen, dose series, 48 h
[1] = test system: IGROV1 ovarian
[2] = test system: OVCAR-5 ovarian
[3] = test system: CCRF-CEM leukemia
[4] = test system: M14 melanoma
[5] = test system: DMS 273 small cell lung
[6] = test system: COLO 205 colon
[7] = test system: SW-620 colon
[8] = test system: RPMI-8226 leukemia
[9] = test system: MOLT-4 leukemia
[10] = test system: A498 renal
[11] = test system: SNB-78 CNS
[12] = test system: KM12 colon
[13] = test system: UACC-62 melanoma
[14] = test system: SF-295 CNS
[15] = test system: K-562 leukemia
[16] = test system: HCT-15 colon
[17] = test system: RXF 393 renal
[18] = test system: SK-MEL-5 melanoma
[19] = test system: MALME-3M melanoma
[20] = test system: HCC-2998 colon
[21] = test system: NCI-H23 lung
[22] = test system: LXFL 529 NSCLC
[23] = test system: TK-10 renal
[24] = test system: A549 NSCLC
[25] = test system: NCI-H522 lung
[26] = test system: U251 CNS
[27] = test system: EKVX NSCLC
[28] = test system: SF-539 CNS
[29] = test system: CAKI-1 renal
[30] = test system: SK-MEL-2 melanoma
[31] = test system: OVCAR-4 ovarian
[32] = test system: SNB-75 CNS
[33] = test system: KM20L2 colon
[34] = test system: DLD-1 colon
[35] = test system: XF 498 CNS
[36] = test system: HL-60(TB) leukemia
[37] = test system: DMS 114 small cell lung
[38] = test system: HT29 colon
[39] = test system: SK-OV-3 ovarian
[40] = test system: SF-268 CNS
[41] = test system: ACHN renal
[42] = test system: LOX IMVI melanoma
[43] = test system: UACC-257 melanoma
[44] = test system: SK-MEL-28 melanoma
[45] = test system: SN12C renal
[46] = test system: OVCAR-8 ovarian
[47] = test system: SR leukemia
[48] = test system: HOP-62 NSCLC
[49] = test system: 786-0 renal
[50] = test system: NCI-H226 lung
[51] = test system: UO-31 renal
[52] = test system: HCT-116 colon
[53] = test system: M19-MEL melanoma
[54] = test system: SNB-19 CNS
[55] = test system: HOP-92 NSCLC

NC(=O)CCC(N=C(N)c1csc(C2OC(CO)C(O)C2O)n1)C(=O)O (stereo not given)
TGI [1]: > 100 µM
TGI [2]: > 100 µM
TGI [3]: > 100 µM
TGI [4]: > 100 µM
TGI [5]: > 100 µM
TGI [6]: > 100 µM
TGI [7]: > 100 µM
TGI [8]: > 100 µM
TGI [9]: > 100 µM
TGI [10]: > 100 µM
TGI [11]: > 100 µM
TGI [12]: > 100 µM
TGI [13]: > 100 µM
TGI [14]: > 100 µM
TGI [15]: > 100 µM
TGI [16]: > 100 µM
TGI [17]: > 100 µM
TGI [18]: > 100 µM
TGI [19]: > 100 µM
TGI [20]: > 100 µM
TGI [21]: > 100 µM
TGI [22]: > 100 µM
TGI [23]: > 100 µM
TGI [24]: > 100 µM
TGI [25]: > 100 µM
TGI [26]: > 100 µM
TGI [27]: > 100 µM
TGI [28]: > 100 µM
TGI [29]: > 100 µM
TGI [30]: > 100 µM
TGI [31]: > 100 µM
TGI [32]: > 100 µM
TGI [33]: > 100 µM
TGI [34]: > 100 µM
TGI [35]: > 100 µM
TGI [36]: > 100 µM
TGI [37]: > 100 µM
TGI [38]: > 100 µM
TGI [39]: > 100 µM
TGI [40]: > 100 µM
TGI [41]: > 100 µM
TGI [42]: > 100 µM
TGI [43]: > 100 µM
TGI [44]: > 100 µM
TGI [45]: > 100 µM
TGI [46]: > 100 µM

COC1C=COC2(C)Oc3c(C)c(O)c4c(O)c(c(/C=N/N5CCN(N)CC5)c(O)c4c3C2=O)NC(=O)C(C)=CC=CC(C)C(O)C(C)C(O)C(C)C(OC(C)=O)C1C (stereo not given)
TGI [1]: > 100 µM
TGI [2]: > 100 µM
TGI [3]: 47.9 µM
TGI [4]: > 100 µM
TGI [5]: > 100 µM
TGI [6]: > 100 µM
TGI [47]: > 100 µM
TGI [48]: > 100 µM
TGI [7]: > 100 µM
TGI [8]: 88.8 µM
TGI [9]: > 100 µM
TGI [10]: > 100 µM
TGI [11]: > 100 µM
TGI [12]: > 100 µM
TGI [13]: > 100 µM
TGI [14]: > 100 µM
TGI [15]: > 100 µM
TGI [49]: > 100 µM
TGI [16]: > 100 µM
TGI [17]: > 100 µM
TGI [18]: > 100 µM
TGI [19]: > 100 µM
TGI [20]: > 100 µM
TGI [21]: > 100 µM
TGI [22]: > 100 µM
TGI [23]: > 100 µM
TGI [24]: > 100 µM
TGI [25]: 78.2 µM
TGI [26]: > 100 µM
TGI [27]: > 100 µM
TGI [28]: > 100 µM
TGI [29]: > 100 µM
TGI [30]: > 100 µM
TGI [31]: > 100 µM
TGI [32]: > 100 µM
TGI [50]: > 100 µM
TGI [33]: > 100 µM
TGI [34]: > 100 µM
TGI [36]: > 100 µM
TGI [51]: > 100 µM
TGI [37]: > 100 µM
TGI [38]: > 100 µM
TGI [39]: > 100 µM
TGI [40]: > 100 µM
TGI [52]: 80.7 µM
TGI [41]: > 100 µM
TGI [42]: > 100 µM
TGI [43]: > 100 µM
TGI [44]: > 100 µM
TGI [45]: > 100 µM
TGI [53]: > 100 µM
TGI [46]: > 100 µM
TGI [54]: > 100 µM
TGI [55]: > 100 µM
